From PubChem BioAssay AID1996
≈ marks a conversion by molar mass, not a printed value.

details: buffer; pH 7.4; 200.0 µM

Row | SMILES | solubility kinetic
1 | CC(=O)c1c(C)[nH]c(C(=O)COC(=O)c2c(C)noc2C)c1C | 5.4 µg/mL (≈ 17 µM)
2 | CC(C)(C)NC(=O)/C=C/c1cccs1 | > 31.4 µg/mL
3 | COC(=O)c1ccc(CSC(=N)N)o1 | 27.6 µg/mL (≈ 129 µM)
4 | Cl.c1ccc2c(c1)nc1n2CCN1CCN1CCCC1 | > 49.4 µg/mL
5 | O=C(Nc1ccc2c(c1)OCO2)c1noc2c1CCCC2 | 4.1 µg/mL (≈ 14.3 µM)
6 | COC(=O)CNC(=O)COC(=O)/C=C/c1ccc(F)cc1 | > 44.3 µg/mL
7 | CCOC(=O)Cn1c(C)cc(COC)c(C#N)c1=O | > 39.6 µg/mL
8 | COc1ccc(S(=O)(=O)N2CCCCC2)cc1NC(=O)c1[nH]c(C)c(C(C)=O)c1C | 3.2 µg/mL (≈ 7.38 µM)
9 | CC1=C(C)CC(C(=O)Nc2nccs2)C(C(=O)O)C1 (stereo not given) | 40.6 µg/mL (≈ 145 µM)
10 | C[N+]1(C)C2CCC1CC(OC(=O)c1ccco1)C2.[Br-] (stereo not given) | 48.5 µg/mL
11 | O=C(CSc1nccc(=O)[nH]1)NC1CCCCCCC1 | > 44.3 µg/mL
12 | CCNC(=O)C12CCC(C)(c3nc4cc(C)c(C)cc4nc31)C2(C)C (stereo not given) | 47.4 µg/mL (≈ 140 µM)
13 | CCc1c(O)nc(SCC(=O)N(CC)CC)[nH]c1=O | > 42.8 µg/mL
14 | C[N+]1(CCOC(=O)C2(c3ccccc3)CCCC2)CCCCC1 | > 47.5 µg/mL
15 | OCCC1CN(Cc2cccc(O)c2)CCN1CCc1ccccc1 (stereo not given) | 50.8 µg/mL (≈ 149 µM)
16 | CS(=O)(=O)/C(C#N)=C/c1cccn1S(=O)(=O)c1ccccc1 | 6.8 µg/mL (≈ 20.2 µM)
17 | CC(=O)Oc1ccc2c(=O)c(/C=N/c3cc(=O)[nH]c(=S)[nH]3)coc2c1 | 30.6 µg/mL (≈ 85.6 µM)
18 | O=C(NC1CC1)C1CC(=O)N(c2ccccc2)C1 (stereo not given) | > 36.6 µg/mL
19 | COc1cc2c(cc1OC)C(COc1ccc(F)cc1)NCC2 (stereo not given) | 43.8 µg/mL (≈ 138 µM)
20 | FC(F)(F)c1cnc(N2CCSCC2)c(Cl)c1 | < 0.3 µg/mL
21 | O=c1[nH]cnc2c1ncn2[C@@H]1C[C@@H](O)[C@H](CO)O1 | > 37.8 µg/mL
22 | COC(=O)Cn1cc([N+](=O)[O-])nc1C | > 29.9 µg/mL
23 | CCN(CC)C(=O)CSc1nnc([C@@H](N)C(C)C)o1.Cl | > 48.4 µg/mL
24 | Nc1nc(Nc2ccccc2F)nc(N2CCCC2)c1[N+](=O)[O-] | 25.8 µg/mL (≈ 81.1 µM)
25 | CCC1CCCCN1Cc1c(O)ccc2c(=O)c(-c3ccccc3)coc12 (stereo not given) | 50.1 µg/mL (≈ 138 µM)

Row | SMILES | solubility kinetic
26 | Cc1cc(C)nc(NC(N)=S)n1 | 10.4 µg/mL (≈ 57.1 µM)
27 | Cc1nnc(N2C(=O)c3ccc(Br)cc3C2=O)s1 | > 48.6 µg/mL
28 | NNC(=O)CCN1CCN(Cc2ccccc2)CC1 | > 39.4 µg/mL
29 | Cc1ccc(NS(=O)(=O)N2CCOCC2)cc1Cl | > 43.6 µg/mL
30 | O=C(NC1CSCC1OC(=O)c1ccccc1)c1ccccc1 (stereo not given) | 26.1 µg/mL (≈ 79.7 µM)
31 | Br.C1=C(c2ccco2)N2CCN=C2S1 | 38.8 µg/mL
32 | O=C1N=C(N2CCOCC2)S/C1=C/c1cc2c(cc1[N+](=O)[O-])OCO2 | 44.8 µg/mL (≈ 123 µM)
33 | Cc1cc([N+](=O)[O-])ccc1NC(=O)CCC(=O)N1CCCC1 | > 45.8 µg/mL
34 | CC1CN(S(=O)(=O)c2ccc(C(=O)O)cc2)CC(C)O1 (stereo not given) | > 44.9 µg/mL
35 | CCN(CC)S(=O)(=O)c1cc(NC(=O)CCc2c(C)noc2C)ccc1C | > 59 µg/mL
36 | Cc1nc2ccc(Br)cc2c2c1CC(CBr)O2 (stereo not given) | 2.2 µg/mL (≈ 6.16 µM)
37 | COc1ccc(S(=O)(=O)N2CC(C)N(C(=O)N3CCOCC3)C2)cc1 (stereo not given) | > 55.4 µg/mL
38 | Cc1oc(-c2cccc(Br)c2)[n+]([O-])c1C | > 40.2 µg/mL
39 | N#Cc1c(N2CCCC2)ccc(Br)c1Cl | < 0.3 µg/mL
40 | CNC(=S)Nc1cccc([N+](=O)[O-])c1 | > 31.7 µg/mL
41 | Cl.Fc1ccc(OCCCCN2CCOCC2)cc1 | > 43.5 µg/mL
42 | COc1ccc(NCC(=O)N2CCCC2)cc1Cl | 38 µg/mL (≈ 141 µM)
43 | COc1ccccc1/C=C(\C)C(=O)c1c(C)cc(C)[nH]c1=O | > 44.6 µg/mL
44 | O=C(c1ccccc1F)N1CCN(C(=O)C2CC2)CC1 | > 41.4 µg/mL
45 | O=C1NC2(CCCCC2)C(=O)N1Cc1cc(=O)n2ccsc2n1 | 44.7 µg/mL (≈ 134 µM)
46 | COc1cc(Cl)c(S(=O)(=O)N2CCCC2)cc1Cl | 42.1 µg/mL (≈ 136 µM)
47 | Cc1cccc(NC(=O)NC2CCCCCCC2)c1 | 5.2 µg/mL (≈ 20 µM)
48 | CC(C)(C)C(=O)Nc1cc(NC(=O)C(C)(C)C)cc(C(=O)Nc2c[nH]c(=O)[nH]c2=O)c1 | 45.3 µg/mL (≈ 105 µM)
49 | CCOC(=O)C1=C(C)NC(C)=C(C(=O)OCC)C1C(=O)OCC(=O)N(C)Cc1ccccc1 | 2.8 µg/mL (≈ 6.11 µM)

The remaining lines, values ahead:

Row | solubility kinetic | SMILES
50 | 3.3 µg/mL (≈ 9.6 µM) | Cc1ccccc1N1CCN(C(=O)NCc2cccc(Cl)c2)CC1
51 | 1.6 µg/mL (≈ 5.77 µM) | COc1cccc(C(=O)Nc2ccc3ccccc3c2)c1
52 | 2.3 µg/mL (≈ 6.78 µM) | COc1ccc(CCNC(=O)c2oc3ccc(OC)cc3c2C)cc1
53 | > 37.1 µg/mL | Cc1ccc(NC(=O)c2sc(N)nc2C)cc1
54 | 6.7 µg/mL (≈ 21.5 µM) | COc1cccc(NC(=O)CC2Oc3ccccc3NC2=O)c1 (stereo not given)
55 | > 42.5 µg/mL | Cc1cccc(C)c1NC(=O)CNC(=O)c1ccncc1
56 | < 0.4 µg/mL | COC(=O)c1ccc(NC(=O)c2ccc3c(c2)C(=O)N(C)C3=O)cc1
57 | > 46.5 µg/mL | Nc1nonc1C(=O)NCCNC(=O)c1ccc(Cl)cc1
58 | < 0.7 µg/mL | COc1c(C)cc(Br)cc1C(=O)Nc1ccccc1C
59 | 36.6 µg/mL (≈ 129 µM) | CC(C)N(Cc1ccccc1)C(=O)COc1ccccc1
60 | 25.1 µg/mL (≈ 110 µM) | c1ccc(Oc2ncnc3sccc23)cc1
61 | < 0.6 µg/mL | COc1ccccc1/C=N/OC(=O)c1ccc(C)cc1
62 | 12.8 µg/mL (≈ 39.9 µM) | N/C(=N\OC(=O)c1ccc([N+](=O)[O-])cc1Cl)c1ccccn1
63 | 14.3 µg/mL (≈ 49.2 µM) | CC(C)Cc1ccc(S(=O)(=O)Nc2cccnc2)cc1
64 | 33.9 µg/mL (≈ 141 µM) | O=C(O)c1csc(-c2cccc(Cl)c2)n1
65 | 0.4 µg/mL (≈ 1.47 µM) | N#Cc1ccc(C(=O)Nc2ccc3ccccc3c2)cc1
66 | > 48.4 µg/mL | COc1ccc(C(=O)Nc2cc3c4c(c2)CC(=O)N4CCC3)cc1
67 | 0.4 µg/mL (≈ 1.21 µM) | COC(=O)c1ccc(NC(=O)COc2ccc([N+](=O)[O-])cc2)cc1
68 | 0.4 µg/mL (≈ 1.07 µM) | CN(C)c1cccc(C(=O)N/C=C/n2cnc3cc(C(F)(F)F)ccc32)c1
69 | 39.6 µg/mL (≈ 138 µM) | OC(COc1ccc(Cl)cc1Cl)Cn1ccnc1 (stereo not given)
70 | > 42.6 µg/mL | CC1C(=O)Nc2ccccc2N1C(=O)c1ccc(F)cc1 (stereo not given)
71 | 1.6 µg/mL (≈ 4.76 µM) | COc1cccc2c(=O)n(CC(=O)NCCc3ccccc3)ccc12
72 | 13.3 µg/mL (≈ 40.5 µM) | NS(=O)(=O)c1ccc(NC(=O)c2c(F)cccc2Cl)cc1
73 | > 47.3 µg/mL | CN(CC(=O)Nc1ccc(Cl)c(Cl)c1)C(=O)C1CCC1

Row | solubility kinetic | SMILES
74 | > 48.2 µg/mL | Cc1onc(-c2ccccc2)c1C(=O)N(C)CCc1ccccn1
75 | 25.8 µg/mL (≈ 74.5 µM) | CCc1cccc(C)c1NC(=S)N(CCOC)C(C)c1ccco1 (stereo not given)
76 | 37.9 µg/mL (≈ 131 µM) | COc1cccc(NC(=S)NCc2ccc(F)cc2)c1
77 | 12.9 µg/mL (≈ 47.4 µM) | COc1ccc(CNC(=O)c2cc(C(C)=O)c[nH]2)cc1
78 | > 46.7 µg/mL | CCN1CCN(c2ccc(NC(=O)c3cnccn3)cc2)CC1
79 | 36.1 µg/mL (≈ 132 µM) | COc1ccc(NC(=O)CCn2cccc2)c(OC)c1
80 | > 42.9 µg/mL | CCCn1cccc(C(=O)Nc2ccc(OC)cc2)c1=O
81 | > 48.2 µg/mL | Cc1cnc(C(=O)OCC(=O)Nc2cccc3ccccc23)cn1
82 | 8.4 µg/mL (≈ 29.4 µM) | Cc1cc(C)cc(C(=O)NC(=S)Nc2cccnc2)c1
83 | 29.5 µg/mL (≈ 128 µM) | Cc1ccccc1Cn1cc(C)c(=O)[nH]c1=O
84 | > 48.1 µg/mL | CCOc1cc(S(=O)(=O)NCc2cccnc2)c(C)cc1C
85 | > 44.3 µg/mL | Cc1ccc(S(=O)(=O)CCC(=O)NC2CCCC2)cc1
86 | > 59 µg/mL | CCOc1cc(Br)c(C(C)NC(=O)c2cccnc2)cc1OCC (stereo not given)
87 | 4.6 µg/mL (≈ 14.9 µM) | Cc1ccc(C)c(N2CCN(CCCc3ccccc3)CC2)c1
88 | > 51.8 µg/mL | COc1cccc(NC(=O)CN2C(=O)NC3(CCCCCC3)C2=O)c1
89 | > 44.9 µg/mL | CC(NC(=O)CCC(=O)c1ccccc1)c1ccc(F)cc1 (stereo not given)
90 | > 42.5 µg/mL | N#C/C(=C\c1cccnc1)C(=O)Nc1ccc(O)cc1F
91 | 3.5 µg/mL (≈ 10.3 µM) | Cc1ccc2nc(-c3ccncc3)cc(C(=O)Nc3ccncc3)c2c1
92 | > 51.8 µg/mL | O=C(CC(c1ccccc1)c1ccccc1)Nc1ccc(C(=O)O)cc1
93 | 1.8 µg/mL (≈ 5.72 µM) | O=C(NC(=S)NCCO)c1sc2ccccc2c1Cl
94 | 21.2 µg/mL (≈ 67.4 µM) | O=C(CN1C(=O)c2ccccc2C1=O)Nc1cccc(Cl)c1
95 | 3 µg/mL (≈ 8.66 µM) | CC(=O)Nc1ccc(NC(=O)CSc2ccc([N+](=O)[O-])cn2)cc1
96 | > 52.6 µg/mL | CCC(C)NC(=O)Cn1nc(Cc2ccncc2)c2ccccc2c1=O (stereo not given)
97 | > 46.6 µg/mL | Cc1ccc(C(=O)NCC(=O)NCCCc2ccccc2)cc1

Row | solubility kinetic | SMILES
98 | 27.8 µg/mL (≈ 89.6 µM) | Cc1cccc(C)c1N1C(=O)CN(Cc2ccccc2)C1=S
99 | 44.4 µg/mL (≈ 122 µM) | Cc1ccc(S(=O)(=O)N2CCN(C(=O)c3cccs3)CC2)cc1C
100 | 28 µg/mL (≈ 77.5 µM) | O=C(Nc1cccc(O)c1)C1CC(c2cccc(Br)c2)=NO1 (stereo not given)
101 | 31.4 µg/mL (≈ 113 µM) | O=C(CNC1CCCCC1)Nc1cccc([N+](=O)[O-])c1
102 | 44.2 µg/mL (≈ 138 µM) | CS(=O)(=O)c1ccc(NCCc2ccccn2)c([N+](=O)[O-])c1
103 | 12.9 µg/mL (≈ 41.4 µM) | Cc1nc(Nc2ccc(O)cc2)c2c3c(sc2n1)CCCC3
104 | 24.1 µg/mL (≈ 85.4 µM) | O=C(Nc1ccncc1)Nc1cccc(Cl)c1Cl
105 | 8.4 µg/mL (≈ 32.2 µM) | Cc1ccc(CC(=O)Nc2ccc(Cl)cn2)cc1
106 | > 61.4 µg/mL | Nc1cc(=O)[nH]c(SCC(=O)Nc2ccc(S(=O)(=O)N3CCCC3)cc2)n1
107 | < 0.3 µg/mL | O=C(Nc1cccc2ccccc12)NC1Cc2ccccc2C1
108 | > 55 µg/mL | Cc1onc(-c2c(F)cccc2Cl)c1C(=O)NCCN1CCNC1=O
109 | > 39.7 µg/mL | CCC1CCC/C1=N\NC(=O)c1ccc(Cl)cc1 (stereo not given)
110 | 38 µg/mL (≈ 142 µM) | O=C(CNC1CCCCC1)Nc1ccc(Cl)cc1
111 | 32.2 µg/mL (≈ 99.9 µM) | O=C(NCc1ccc(F)cc1)C(Cc1ccccc1)n1cccc1 (stereo not given)
112 | > 47.2 µg/mL | Cc1ccc(C(=O)O)cc1NC(=S)NCCc1ccccc1
113 | 41.4 µg/mL (≈ 118 µM) | Cc1ccc(C(=O)Nc2cccc(NC(=O)CN3CCCCC3)c2)cc1
114 | 29.8 µg/mL (≈ 148 µM) | CN(C)Cc1c(O)ccc2ccccc12
115 | 22.5 µg/mL (≈ 85.5 µM) | Clc1ccc(-c2ncc3ccccn23)c(Cl)c1
116 | > 43.1 µg/mL | O=C(Nc1nccs1)C1CC(=O)N(c2ccccc2)C1 (stereo not given)
117 | < 0.2 µg/mL | O=C(Nc1ccc(F)cc1)Nc1ccc2ccccc2n1
118 | 2 µg/mL (≈ 7.95 µM) | COC(=O)c1oc(-c2ccc(Cl)cc2)nc1C
119 | 1.5 µg/mL (≈ 4.26 µM) | Cc1oc(S(=O)(=O)N2CCCC2)cc1C(=O)Nc1ccc(F)cc1
120 | 48.5 µg/mL (≈ 142 µM) | COc1ccc(C2C(C(C)=O)=C(O)C(=O)N2c2ccc(F)cc2)cc1 (stereo not given)
